# Laboratory results published in ChEMBL document CHEMBL3286384, “Synthesis, cytotoxicity, antimicrobial and anti-biofilm activities of novel pyrazolo[3,4-b]pyridine and pyrimidine functionalized 1,2,3-triazole derivatives” (Bioorg Med Chem Lett, 2014).
# Activity calls are given as the source filed them. No cut-off for these calls is given here.
# Assays:
# [1] = test system: Bacillus subtilis; assay: Bactericidal activity against Bacillus subtilis MTCC 121 after 24 hrs by agar plating method; assay type: functional; details: MTCC 121, 24 h
# [2] = test system: Staphylococcus aureus; assay: Antimicrobial activity against Staphylococcus aureus MLS-16 MTCC 2940 after 24 hrs by well diffusion method; assay type: functional; details: MLS-16 MTCC 2940, 24 h
# [3] = test system: Pseudomonas aeruginosa; assay: Antimicrobial activity against Pseudomonas aeruginosa MTCC 2453 after 24 hrs by well diffusion method; assay type: functional; details: MTCC 2453, 24 h
# [4] = test system: Raoultella planticola; assay: Bactericidal activity against Klebsiella planticola MTCC 530 after 24 hrs by agar plating method; assay type: functional; details: MTCC 530, 24 h
# [5] = test system: Staphylococcus aureus; assay: Bactericidal activity against Staphylococcus aureus MLS-16 MTCC 2940 after 24 hrs by agar plating method; assay type: functional; details: MLS-16 MTCC 2940, 24 h
# [6] = test system: Micrococcus luteus; assay: Bactericidal activity against Micrococcus luteus MTCC 2470 after 24 hrs by agar plating method; assay type: functional; details: MTCC 2470, 24 h
# [7] = test system: Raoultella planticola; assay: Antimicrobial activity against Klebsiella planticola MTCC 530 after 24 hrs by well diffusion method; assay type: functional; details: MTCC 530, 24 h
# [8] = test system: Staphylococcus aureus; assay: Bactericidal activity against Staphylococcus aureus MTCC 96 after 24 hrs by agar plating method; assay type: functional; details: MTCC 96, 24 h
# [9] = test system: Candida albicans; details: MTCC 3017
# Description: Antimicrobial activity against Candida albicans MTCC 3017 after 24 hrs by well diffusion method
# [10] = test system: Micrococcus luteus; assay: Antimicrobial activity against Micrococcus luteus MTCC 2470 after 24 hrs by well diffusion method; assay type: functional; details: MTCC 2470, 24 h
# [11] = test system: Pseudomonas aeruginosa; assay: Bactericidal activity against Pseudomonas aeruginosa MTCC 2453 after 24 hrs by agar plating method; assay type: functional; details: MTCC 2453, 24 h
# [12] = test system: Escherichia coli; assay: Bactericidal activity against Escherichia coli MTCC 739 after 24 hrs by agar plating method; assay type: functional; details: MTCC 739, 24 h
# [13] = test system: Staphylococcus aureus; assay: Antimicrobial activity against Staphylococcus aureus MTCC 96 after 24 hrs by well diffusion method; assay type: functional; details: MTCC 96, 24 h
# [14] = test system: Escherichia coli; assay: Antimicrobial activity against Escherichia coli MTCC 739 after 24 hrs by well diffusion method; assay type: functional; details: MTCC 739, 24 h
# [15] = test system: Bacillus subtilis; assay: Antimicrobial activity against Bacillus subtilis MTCC 121 after 24 hrs by well diffusion method; assay type: functional; details: MTCC 121, 24 h
# [16] = test system: HeLa; assay: Cytotoxicity against human HeLa cells after 24 hrs by MTT assay; assay type: functional, cell-based
# [17] = test system: A549; assay: Cytotoxicity against human A549 cells after 24 hrs by MTT assay; assay type: functional, cell-based; details: A549, 24 h
# [18] = test system: DU-145; assay: Cytotoxicity against human DU145 cells after 24 hrs by MTT assay; assay type: functional, cell-based; details: DU-145, 24 h
# [19] = test system: MCF7; assay: Cytotoxicity against human MCF7 cells after 24 hrs by MTT assay; assay type: functional, cell-based; details: MCF7, 24 h
# [20] = test system: Micrococcus luteus; assay: Antimicrobial activity against Micrococcus luteus MTCC 2470 assessed as inhibition of biofilm formation after 24 hrs by crystal violet staining-based assay; assay type: functional, organism-based; details: MTCC 2470, 24 h
# [21] = test system: Raoultella planticola; assay: Antimicrobial activity against Klebsiella planticola MTCC 530 assessed as inhibition of biofilm formation after 24 hrs by crystal violet staining-based assay; assay type: functional, organism-based; details: MTCC 530, 24 h
# [22] = test system: Staphylococcus aureus; assay: Antimicrobial activity against Staphylococcus aureus MTCC 96 assessed as inhibition of biofilm formation after 24 hrs by crystal violet staining-based assay; assay type: functional, organism-based; details: MTCC 96, 24 h
# [23] = test system: Staphylococcus aureus; assay: Antimicrobial activity against Staphylococcus aureus MLS-16 MTCC 2940 assessed as inhibition of biofilm formation after 24 hrs by crystal violet staining-based assay; assay type: functional, organism-based; details: MLS-16 MTCC 2940, 24 h
# [24] = test system: Pseudomonas aeruginosa; assay: Antimicrobial activity against Pseudomonas aeruginosa MTCC 2453 assessed as inhibition of biofilm formation after 24 hrs by crystal violet staining-based assay; assay type: functional, organism-based; details: MTCC 2453, 24 h
compound,measurement,setting,value
O=C(O)c1cn(C2CC2)c2cc(N3CCNCC3)c(F)cc2c1=O [CIPROFLOXACIN],MBC,[1],1.17 µg/mL
same,MIC,[2],0.9 µg/mL
same,MIC,[3],0.9 µg/mL
same,MBC,[4],1.17 µg/mL
same,MBC,[5],1.17 µg/mL
same,MBC,[6],0.58 µg/mL
same,MIC,[7],0.9 µg/mL
same,MBC,[8],0.58 µg/mL
same,MIC,[9],inactive
same,MIC,[10],0.9 µg/mL
same,MBC,[11],0.58 µg/mL
same,MBC,[12],0.58 µg/mL
same,MIC,[13],0.9 µg/mL
same,MIC,[14],0.9 µg/mL
same,MIC,[15],0.9 µg/mL
O=c1[nH]cc(F)c(=O)[nH]1 [FLUOROURACIL],IC50,[16],1.3 µM
same,IC50,[17],1.3 µM
same,IC50,[18],1.5 µM
same,IC50,[19],1.4 µM
CC[C@H]1OC(=O)[C@H](C)[C@@H](O[C@H]2C[C@@](C)(OC)[C@@H](O)[C@H](C)O2)[C@H](C)[C@@H](O[C@@H]2O[C@H](C)C[C@H](N(C)C)[C@H]2O)[C@](C)(O)C[C@@H](C)C(=O)[C@H](C)[C@@H](O)[C@]1(C)O [ERYTHROMYCIN],IC50,[20],0.24 µg/mL
same,IC50,[21],0.21 µg/mL
same,IC50,[22],0.32 µg/mL
same,IC50,[23],0.32 µg/mL
same,IC50,[24],0.26 µg/mL
C#CCn1nc(-n2cc(Cn3c(N)nc(C(F)(F)F)cc3=O)nn2)c2ccc(C(F)(F)F)nc21,IC50,[16],10.2 µM
same,IC50,[17],21.2 µM
same,IC50,[18],23.4 µM
same,IC50,[19],12.4 µM
CCn1nc(-n2cc(Cn3c(N)nc(C(F)(F)F)cc3=O)nn2)c2ccc(C(F)(F)F)nc21,IC50,[16],62.3 µM
same,IC50,[17],> 100 µM
same,IC50,[18],> 100 µM
same,IC50,[19],95.2 µM
Nc1nc(C(F)(F)F)cc(=O)n1Cc1cn(-c2nn(CCC(F)(F)C(F)(F)C(F)(F)C(F)(F)C(F)(F)C(F)(F)C(F)(F)C(F)(F)F)c3nc(C(F)(F)F)ccc23)nn1,IC50,[16],> 100 µM
same,IC50,[17],68.2 µM
same,IC50,[18],88.8 µM
same,IC50,[19],> 100 µM
Nc1nc(OCc2cn(-c3n[nH]c4nc(C(F)(F)F)ccc34)nn2)cc(C(F)(F)F)n1,MBC,[1],31.2 µg/mL
same,MIC,[2],15.6 µg/mL
same,MIC,[3],7.8 µg/mL
same,MBC,[4],31.2 µg/mL
same,MBC,[5],31.2 µg/mL
same,IC50,[20],7.8 µg/mL
same,MBC,[6],15.6 µg/mL
same,MIC,[7],15.6 µg/mL
same,IC50,[21],7.8 µg/mL
same,IC50,[22],7.8 µg/mL
same,IC50,[16],> 100 µM
same,IC50,[23],7.8 µg/mL
same,MBC,[8],31.2 µg/mL
same,IC50,[17],22.8 µM
same,MIC,[9],inactive
same,MIC,[10],7.8 µg/mL
same,IC50,[18],28.9 µM
same,MBC,[11],15.6 µg/mL
same,IC50,[24],3.9 µg/mL
same,MBC,[12],7.8 µg/mL
same,MIC,[13],15.6 µg/mL
same,MIC,[14],7.8 µg/mL
same,MIC,[15],15.6 µg/mL
same,IC50,[19],> 100 µM
Nc1nc(C(F)(F)F)cc(=O)n1Cc1cn(-c2n[nH]c3nc(C(F)(F)F)ccc23)nn1,IC50,[16],16.1 µM
same,IC50,[17],9.5 µM
same,IC50,[18],10.5 µM
same,IC50,[19],14.4 µM
CCCCCCCCn1nc(-n2cc(Cn3c(N)nc(C(F)(F)F)cc3=O)nn2)c2ccc(C(F)(F)F)nc21,IC50,[16],9.4 µM
same,IC50,[17],10.1 µM
same,IC50,[18],12.2 µM
same,IC50,[19],11.3 µM
Nc1n[nH]c2nc(C(F)(F)F)ccc12,IC50,[16],60.2 µM
same,IC50,[17],22.4 µM
same,IC50,[18],29.1 µM
same,IC50,[19],58.4 µM
CCCCCCCCCCn1nc(-n2cc(COc3cc(C(F)(F)F)nc(N)n3)nn2)c2ccc(C(F)(F)F)nc21,MBC,[1],31.2 µg/mL
same,MIC,[2],7.8 µg/mL
same,MIC,[3],7.8 µg/mL
same,MBC,[4],7.8 µg/mL
same,MBC,[5],7.8 µg/mL
same,IC50,[20],3.9 µg/mL
same,MBC,[6],15.6 µg/mL
same,MIC,[7],7.8 µg/mL
same,IC50,[21],3.9 µg/mL
same,IC50,[22],7.8 µg/mL
same,IC50,[16],34.3 µM
same,IC50,[23],3.9 µg/mL
same,MBC,[8],15.6 µg/mL
same,IC50,[17],4.2 µM
same,MIC,[9],inactive
same,MIC,[10],15.6 µg/mL
same,IC50,[18],5.8 µM
same,MBC,[11],15.6 µg/mL
same,IC50,[24],3.9 µg/mL
same,MBC,[12],15.6 µg/mL
same,MIC,[13],7.8 µg/mL
same,MIC,[14],7.8 µg/mL
same,MIC,[15],15.6 µg/mL
same,IC50,[19],37.2 µM
